Experimental findings from patent US8114991B2, “Amino-1,3,5-triazines N-substituted with chiral bicyclic radicals, process for their preparation, compositions thereof, and their use as herbicides and plant growth regulators” (Bayer Cropscience AG, priority 2003, dated 2012) are described below.

The structures appear in SMILES notation.

Test [1] concerns harmful plants such as Stellaria media, Lolium multiforum, Amaranthus retroflexus, Sinapis alba, Avena sativa and Setaria viridis. Nature of the test: Pre-emergence effect on weeds (greenhouse pot test). The class given is in vivo. The settings on record: application rate of 1 kg or less of active ingredient per hectare; scored after 3 to 4 weeks by comparison with untreated controls. The procedure, abridged: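 Seeds or rhizome pieces sown in sandy loam; test compounds (wettable powder or emulsion concentrate) applied pre-emergence to soil surface as aqueous suspension/emulsion at various dosages, 600 to 800 l water/ha. Greenhouse; plant/emergence damage scored visually after 3 to 4 weeks versus untreated controls.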

Test [2] relates to harmful plants such as Sinapis alba, Echinochloa crus-galli, Lolium multiflorum, Stellaria media, Cyperus iria, Amaranthus retroflexus, Setaria viridis, Avena …. Nature of the test: Post-emergence effect on weeds (greenhouse pot test). The settings on record: application rate of 2 kg or less of active ingredient per hectare; treated in the three-leaf stage; scored after approx. 3 to 4 weeks by comparison with untreated controls. The class given is in vivo.

For the compound `Nc1nc(CF)nc(N[C@@H]2CCc3ccccc32)n1` [Compound 8.90], the “pre-emergence control of harmful plants (plant or emergence damage scored visually)” value (shortened to “pre-emergence control of harmful plants”) in test [1] is given as “very good pre-emergence control”. The “herbicidal post-emergence activity against harmful plants (scored visually)” value (from here on “herbicidal post-emergence activity”) in test [2] is recorded as “very good herbicidal post-emergence activity”.

For the compound `Nc1nc(CF)nc(N[C@@H]2CCCc3ccccc32)n1` [Compound 8.100], the “pre-emergence control of harmful plants” value in test [1] is “very good pre-emergence control”. In test [2], the “herbicidal post-emergence activity” value is “very good herbicidal post-emergence activity”.

Regarding `Nc1nc(CCl)nc(N[C@@H]2CCc3ccccc32)n1` [Compound 8.113], in test [1], the “pre-emergence control of harmful plants” value was “very good pre-emergence control”. Further, the “herbicidal post-emergence activity” value in test [2] was “very good herbicidal post-emergence activity”.

For `Nc1nc(CCl)nc(N[C@@H]2CCCc3ccccc32)n1` [Compound 8.117], the “pre-emergence control of harmful plants” value in test [1] is listed as “very good pre-emergence control”. Besides, in test [2], the “herbicidal post-emergence activity” value is on record as “very good herbicidal post-emergence activity”.

As for `CC1(c2nc(N)nc(N[C@@H]3CCc4ccccc43)n2)CC1` [Compound 8.148], the “pre-emergence control of harmful plants” value in test [1] is given as “very good pre-emergence control”. For the same compound, in test [2], the “herbicidal post-emergence activity” value is reported as “very good herbicidal post-emergence activity”.

Take `CC1(c2nc(N)nc(N[C@@H]3CCCc4ccccc43)n2)CC1` [Compound 8.152]: the “pre-emergence control of harmful plants” value in test [1] is given as “very good pre-emergence control”. In test [2], the “herbicidal post-emergence activity” value is on record as “very good herbicidal post-emergence activity”.

In the case of `Nc1nc(N[C@@H]2CCc3ccccc32)nc(C2(F)CC2)n1` [Compound 8.160], the “pre-emergence control of harmful plants” value in test [1] was “very good pre-emergence control”. Also, the “herbicidal post-emergence activity” value in test [2] is on record as “very good herbicidal post-emergence activity”.

With `Nc1nc(N[C@@H]2CCCc3ccccc32)nc(C2(F)CC2)n1` [Compound 8.170], the “pre-emergence control of harmful plants” value in test [1] is “very good pre-emergence control”. Also, the “herbicidal post-emergence activity” value in test [2] is “very good herbicidal post-emergence activity”.

As to `Nc1nc(N[C@@H]2CCc3ccccc32)nc(C2(Cl)CC2)n1` [Compound 8.183], the “pre-emergence control of harmful plants” value in test [1] is recorded as “very good pre-emergence control”. For the same compound, in test [2], the “herbicidal post-emergence activity” value was “very good herbicidal post-emergence activity”.

Consider `Nc1nc(N[C@@H]2CCCc3ccccc32)nc(C2(Cl)CC2)n1` [Compound 8.187], for which the “pre-emergence control of harmful plants” value in test [1] was “very good pre-emergence control”. Also, the “herbicidal post-emergence activity” value in test [2] was “very good herbicidal post-emergence activity”.

Take `CC(C)(F)c1nc(N)nc(N[C@@H]2CCc3ccccc32)n1` [Compound 8.195]: the “pre-emergence control of harmful plants” value in test [1] was “very good pre-emergence control”. The “herbicidal post-emergence activity” value in test [2] is on record as “very good herbicidal post-emergence activity”.

In the case of `Cc1ccc2c(c1)[C@H](Nc1nc(N)nc(C(C)(C)F)n1)CC2` [Compound 8.196], in test [1], the “pre-emergence control of harmful plants” value is “very good pre-emergence control”. The “herbicidal post-emergence activity” value in test [2] is “very good herbicidal post-emergence activity”.

For `CC(C)(F)c1nc(N)nc(N[C@@H]2CCc3ccc(F)cc32)n1` [Compound 8.197], the “pre-emergence control of harmful plants” value in test [1] is “very good pre-emergence control”. Further, in test [2], the “herbicidal post-emergence activity” value is given as “very good herbicidal post-emergence activity”.

`Cc1cc2c(cc1C)[C@H](Nc1nc(N)nc(C(C)(C)F)n1)CC2` [Compound 8.201]: the “pre-emergence control of harmful plants” value in test [1] is given as “very good pre-emergence control”. Moreover, in test [2], the “herbicidal post-emergence activity” value is listed as “very good herbicidal post-emergence activity”.

For the compound `CC(C)(F)c1nc(N)nc(N[C@@H]2CCCc3ccccc32)n1` [Compound 8.205], the “pre-emergence control of harmful plants” value in test [1] is listed as “very good pre-emergence control”. Besides, the “herbicidal post-emergence activity” value in test [2] is “very good herbicidal post-emergence activity”.

With `Cc1ccc2c(c1)[C@H](Nc1nc(N)nc(C(C)(C)F)n1)CCC2` [Compound 8.206], the “pre-emergence control of harmful plants” value in test [1] is listed as “very good pre-emergence control”. In test [2], the “herbicidal post-emergence activity” value is listed as “very good herbicidal post-emergence activity”.

For `Cc1cc(C)c2c(c1)[C@H](Nc1nc(N)nc(C(C)(C)F)n1)CCC2` [Compound 8.209], the “pre-emergence control of harmful plants” value in test [1] is “very good pre-emergence control”. The “herbicidal post-emergence activity” value in test [2] is “very good herbicidal post-emergence activity”.

Turning to `Cc1ccc2c(c1)[C@H](Nc1nc(N)nc(C(C)(C)F)n1)CCO2` [Compound 8.215], the “pre-emergence control of harmful plants” value in test [1] is “very good pre-emergence control”. The “herbicidal post-emergence activity” value in test [2] is listed as “very good herbicidal post-emergence activity”.

Consider `Cc1ccc2c(c1)[C@H](Nc1nc(N)nc(C(C)(C)Cl)n1)CC2` [Compound 8.219], for which, in test [1], the “pre-emergence control of harmful plants” value is recorded as “very good pre-emergence control”. In test [2], the “herbicidal post-emergence activity” value is “very good herbicidal post-emergence activity”.

On to `CCCc1nc(N)nc(N[C@@H]2CCOc3ccc(C)cc32)n1` [Compound 8.231], for which the “pre-emergence control of harmful plants” value in test [1] is “very good pre-emergence control”. For the same compound, the “herbicidal post-emergence activity” value in test [2] is on record as “very good herbicidal post-emergence activity”.

In the case of `COCc1nc(N)nc(N[C@@H]2CCc3ccccc32)n1` [Compound 8.233], the “pre-emergence control of harmful plants” value in test [1] is given as “very good pre-emergence control”. Further, the “herbicidal post-emergence activity” value in test [2] is “very good herbicidal post-emergence activity”.

On to `COCc1nc(N)nc(N[C@@H]2CCCc3ccccc32)n1` [Compound 8.234], for which the “pre-emergence control of harmful plants” value in test [1] is “very good pre-emergence control”. In addition, the “herbicidal post-emergence activity” value in test [2] is reported as “very good herbicidal post-emergence activity”.

For the compound `CC(C)(F)c1nc(N)nc(N[C@@H]2CCOc3c(F)cccc32)n1` [Compound 8.237], the “pre-emergence control of harmful plants” value in test [1] is given as “very good pre-emergence control”. Moreover, the “herbicidal post-emergence activity” value in test [2] is given as “very good herbicidal post-emergence activity”.

Take `Cc1nc(N)nc(N[C@@H]2CCOc3c(F)cccc32)n1` [Compound 8.238]: the “pre-emergence control of harmful plants” value in test [1] is “very good pre-emergence control”. Moreover, the “herbicidal post-emergence activity” value in test [2] was “very good herbicidal post-emergence activity”.

`CCc1nc(N)nc(N[C@@H]2CCOc3c(F)cccc32)n1` [Compound 8.239]: the “pre-emergence control of harmful plants” value in test [1] was “very good pre-emergence control”. For the same compound, the “herbicidal post-emergence activity” value in test [2] was “very good herbicidal post-emergence activity”.

With `CCCc1nc(N)nc(N[C@@H]2CCOc3c(F)cccc32)n1` [Compound 8.240], in test [1], the “pre-emergence control of harmful plants” value is “very good pre-emergence control”. In addition, the “herbicidal post-emergence activity” value in test [2] is “very good herbicidal post-emergence activity”.

For the compound `Cc1ccc2c(c1C)OCC[C@H]2Nc1nc(N)nc(C(C)(C)F)n1` [Compound 8.241], the “pre-emergence control of harmful plants” value in test [1] was “very good pre-emergence control”. In test [2], the “herbicidal post-emergence activity” value was “very good herbicidal post-emergence activity”.

Take `CCc1nc(N)nc(N[C@@H]2CCOc3c2ccc(C)c3C)n1` [Compound 8.242]: the “pre-emergence control of harmful plants” value in test [1] is recorded as “very good pre-emergence control”. Also, the “herbicidal post-emergence activity” value in test [2] was “very good herbicidal post-emergence activity”.

`COc1ccc2c(c1)[C@H](Nc1nc(N)nc(C(C)(C)F)n1)CC2` [Compound 8.243]: the “pre-emergence control of harmful plants” value in test [1] is recorded as “very good pre-emergence control”. The “herbicidal post-emergence activity” value in test [2] is given as “very good herbicidal post-emergence activity”.

As for `CCc1nc(N)nc(N[C@@H]2CCc3ccc(OC)cc32)n1` [Compound 8.244], in test [1], the “pre-emergence control of harmful plants” value is listed as “very good pre-emergence control”. For the same compound, the “herbicidal post-emergence activity” value in test [2] is listed as “very good herbicidal post-emergence activity”.

Consider `CCc1ccc2c(c1)[C@H](Nc1nc(N)nc(C(C)(C)F)n1)CC2` [Compound 8.245], for which the “pre-emergence control of harmful plants” value in test [1] is recorded as “very good pre-emergence control”. Moreover, in test [2], the “herbicidal post-emergence activity” value was “very good herbicidal post-emergence activity”.

In the case of `CCc1ccc2c(c1)[C@H](Nc1nc(C)nc(N)n1)CC2` [Compound 8.246], in test [1], the “pre-emergence control of harmful plants” value is on record as “very good pre-emergence control”. Besides, the “herbicidal post-emergence activity” value in test [2] is given as “very good herbicidal post-emergence activity”.

`CCc1ccc2c(c1)[C@H](Nc1nc(N)nc(C(C)C)n1)CC2` [Compound 8.247]: in test [1], the “pre-emergence control of harmful plants” value is “very good pre-emergence control”. Also, the “herbicidal post-emergence activity” value in test [2] is on record as “very good herbicidal post-emergence activity”.

Consider `CCc1ccc2c(c1)[C@H](Nc1nc(N)nc(CC)n1)CC2` [Compound 8.248], for which, in test [1], the “pre-emergence control of harmful plants” value is on record as “very good pre-emergence control”. Further, the “herbicidal post-emergence activity” value in test [2] is given as “very good herbicidal post-emergence activity”.
